# Tests used:
# ACAT = ACAT enzyme assay, [14C]cholesterol ester quantitation; type: biochemical, rat; details: 10 μM
# Source text: (§1) The procedures used were based on known assays: ACAT (from rat; Ref: Largis et al (1989), J. Lipid. Res., vol 30, 681-689), COX-2 (human; Ref: Riendeau et al (1997), Can. J. Physiol. Pharmacol., vol 75, 1088-1095 and Warner et al (1999), Pro. Natl. Acad Sci. USA, vol 96, 7563-7568), 5-LO (human; Ref: Carter et al (1991), J. Pharmacol. Exp. Ther., vol 256, no 3, 929-937, and Safayhi et al (2000), Planta Medica, vol 66, 110-113), PBR (from rat; Le Fur et al (1983), Life Sci. USA, vol 33, 449-457), CysLT1 (human; Martin et al (2001), Biochem. Pharmacol., vol 62, no 9, 1193-1200) and CBR (from rat; Damm et al (1978), Res. Comm. Chem. Pathol. Pharmacol., vol 22, 597-600 and Speth et al (1979), Life Sci., vol 24, 351-357).
# Binding assays were done for each of Compounds 1-12 and 46 using ACAT, COX-2, 5-LO, PBR and CysLT1 enzymes. The procedures used are based on the respective references mentioned above and the conditions are summarized in Tables 1 (enzyme assays) and 2 (radioligand receptor assays).
# (§2) Binding Assays were done at constant concentration of the compound, in 1% DMSO as vehicle, and are specified below each enzyme/receptor type in Table 3. Significance was obtained when a result was ≧50% binding or inhibition (underlined).
# [1] = test system: central benzodiazepine receptor (CBR; GABAA); assay: CBR (GABAA) radioligand binding assay, [3H]flunitrazepam, rat brain; details: 10 μM
# Source text: as §1, §2
# As Compound 1 was isolated from structural prediction through genetic analysis and activity identified through in vitro cytotoxic assays, its molecular target(s) were unknown at the time of discovery. Based on the structural characteristics of TLN-4601, we first investigated its binding affinity to the central (GABAA; CBR;) and peripheral (PBR) benzodiazepine receptors. The effect of TLN-4601 on CBR (GABAA) and PBR was initially evaluated in a radioligand-binding assay at MDS Pharma Services (Taipei, Tawain). CBR and PBR were obtained from rat brain and heart membrane-fractions, respectively. Displacement assays were done in the presence of 1 nM [^3H]-Flunitrazepam (CBR; GABAA) or 0.3 nM of [^3H]-PK11195 (PBR). TLN-4601 was tested at 0.01, 0.1, 0.5, 1, 5 and 10 μM. Non-specific binding was estimated in the presence of 10 μM diazepam (CBR) or 100 μM dipyrimadole (PBR) and assays were performed according to previous described methods (Damm et al Res Commun Chem Pathol Pharmacol 22, pp 597-600; Le Fur et al (1983) Life Science 33, pp 449-57). […] This contrats with current specific PBR ligands, which bind the PBR with nanomolar affinity yet their effect on cell proliferation, is in the micromolar range.
# SRBC = assay: Hemolysis of SRBC; type: cell-based
# [2] = test system: HT-29 (colorectal carcinoma); assay: In vitro cytotoxic activity, propidium iodide, HT-29; type: cell-based, human
# SF268 (CNS) = assay: In vitro cytotoxic activity, propidium iodide, SF-268; type: cell-based, human; details: 96 hrs
# [3] = test system: PC-3 (prostate adenocarcinoma); assay: In vitro cytotoxic activity, propidium iodide, PC-3; type: cell-based, human; details: 96 hrs
# [4] = test system: MDA-MB-231 (mammary gland adenocarcinoma); assay: In vitro cytotoxic activity, propidium iodide, MDA-MB-231; type: cell-based, human; details: 96 hrs
Compound,"Percentage of inhibition or binding activity, ACAT (ACAT) [%]","Percentage of inhibition or binding activity, CBR [1] [%]",Hemolysis ED50 (concentration necessary to achieve 50% hemolysis of SRBC) (SRBC) [µg/mL],"GI50 ([2]; Homo sapiens, HT-29, 96 h) [nM]",GI50 ([2]; 96 hrs) [nM],GI50 (SF268 (CNS)) [nM],GI50 [3] [nM],GI50 [4] [nM]
CC(C)=CCC/C(C)=C/CC/C(C)=C/CN1C(=O)c2cccc(O)c2N(C)c2c(O)cc(O)cc21 [Compound 2],51,22,5.12,–,–,–,–,–
CC(C)=CCC/C(C)=C/CC/C(C)=C/CN1C(=O)c2cccc(O)c2N(Cc2ccccc2)c2c(O)cc(O)cc21 [Compound 3],63,10,>64,–,–,–,–,–
COc1cccc2c1Nc1c(O)cc(O)cc1N(C/C=C(\C)CC/C=C(\C)CCC=C(C)C)C2=O [Compound 4],–,12,>64,–,–,–,–,–
COc1cc(O)cc2c1Nc1c(O)cccc1C(=O)N2C/C=C(\C)CC/C=C(\C)CCC=C(C)C [Compound 5],60,21,>64,–,–,–,–,–
COc1cc(OC)c2c(c1)N(C/C=C(\C)CC/C=C(\C)CCC=C(C)C)C(=O)c1cccc(O)c1N2 [Compound 6],–,14,>64,> 30000,–,–,–,–
COc1cccc2c1Nc1c(OC)cc(O)cc1N(CC=C(C)CCC=C(C)CCC=C(C)C)C2=O [Compound 7],95,21,>64,–,14100,18500,14600,17400
COc1cc(OC)c2c(c1)N(CC=C(C)CCC=C(C)CCC=C(C)C)C(=O)c1cccc(OC)c1N2 [Compound 8],40,1,–,–,–,–,–,–
CC(=O)Oc1cc(OC(C)=O)c2c(c1)N(CC=C(C)CCC=C(C)CCC=C(C)C)C(=O)c1cccc(O)c1N2 [Compound 9],77,10,>64,–,12600,1880,1440,2480
CC(=O)Oc1cccc2c1Nc1c(OC(C)=O)cc(O)cc1N(CC=C(C)CCC=C(C)CCC=C(C)C)C2=O [Compound 10],90,5,>64,–,13000,2020,1350,1550
CCN1c2c(O)cccc2C(=O)N(C/C=C(\C)CC/C=C(\C)CCC=C(C)C)c2cc(O)cc(O)c21 [Compound 14],–,–,43.9,–,2040,760,1150,2160
CC(C)=CCCC1(C)OC1CC/C(C)=C/CN1C(=O)c2cccc(O)c2Nc2c(O)cc(O)cc21 (stereo not shown) [Compound 17],–,–,35.0,–,> 30000,13400,18700,> 30000
C/C(=C\CN1C(=O)c2cccc(O)c2Nc2c(O)cc(O)cc21)CC/C=C(\C)CCC1OC1(C)C (stereo not shown) [Compound 18],–,–,>64,–,> 30000,7450,> 30000,> 30000
CC(C)CCCC(C)CCCC(C)CCN1C(=O)c2cccc(O)c2Nc2c(O)cc(O)cc21 (stereo not shown) [Compound 46],8,27,13.9,–,–,–,–,–
CCCN1c2c(O)cccc2C(=O)N(C/C=C(\C)CC/C=C(\C)CCC=C(C)C)c2cc(O)cc(O)c21 [Compound 63],–,–,>64,–,–,–,–,–
CCCCN1c2c(O)cccc2C(=O)N(C/C=C(\C)CC/C=C(\C)CCC=C(C)C)c2cc(O)cc(O)c21 [Compound 64],–,–,>64,–,–,–,–,–
CCCCCCN1c2c(O)cccc2C(=O)N(C/C=C(\C)CC/C=C(\C)CCC=C(C)C)c2cc(O)cc(O)c21 [Compound 67],–,–,>64,–,–,–,–,–
CCC(C)N1c2c(O)cccc2C(=O)N(C/C=C(\C)CC/C=C(\C)CCC=C(C)C)c2cc(O)cc(O)c21 (stereo not shown) [Compound 77],–,–,60.9,–,–,–,–,–
CC(C)CCCC(C)CCCC(C)CCN1C(=O)c2cccc(O)c2N(C)c2c(O)cc(O)cc21 (stereo not shown) [Compound 78],–,–,9.89,–,–,–,–,–
COC(C)(CCC=C(C)C)CCC/C(C)=C/CN1C(=O)c2cccc(O)c2N(C)c2c(O)cc(O)cc21 (stereo not shown) [Compound 80],–,–,>64,–,–,–,–,–
COC(C)(C)CCC/C(C)=C/CC/C(C)=C/CN1C(=O)c2cccc(O)c2Nc2c(O)cc(O)cc21 [Compound 82],–,–,>64,–,–,–,–,–
COC(C)(CCC=C(C)C)CCC/C(C)=C/CN1C(=O)c2cccc(O)c2Nc2c(O)cc(O)cc21 (stereo not shown) [Compound 83],–,–,12.4,–,–,–,–,–
COC(C)(C)CCCC(C)(CCC/C(C)=C/CN1C(=O)c2cccc(O)c2Nc2c(O)cc(O)cc21)OC (stereo not shown) [Compound 84],–,–,>32,–,–,–,–,–
CCN1c2c(O)cccc2C(=O)N(C/C=C(\C)CC/C=C(\C)CCCC(C)(C)OC)c2cc(O)cc(O)c21 [Compound 85],–,–,>64,–,–,–,–,–
CCN1c2c(O)cccc2C(=O)N(CC=C(C)CCCC(C)(CCCC(C)(C)OC)OC)c2cc(O)cc(O)c21 (stereo not shown) [Compound 87],–,–,>64,–,1830,910,1390,2400
CC(C)=CCCC(C)(O)CCC/C(C)=C/CN1C(=O)c2cccc(O)c2Nc2c(O)cc(O)cc21 (stereo not shown) [Compound 89],–,–,>64,> 30000,–,–,–,–
CC(=O)NC(C)(CCC=C(C)C)CCC/C(C)=C/CN1C(=O)c2cccc(O)c2Nc2c(O)cc(O)cc21 (stereo not shown) [Compound 92],–,–,>64,> 30000,–,–,–,–
CC(C)=CCC/C(C)=C/CC/C(C)=C/CN1C(=O)c2cccc(O)c2N(C)c2c(O)cc(O)cc21 [Compound 98],–,–,–,–,690,160,820,510
[2H]C([2H])([2H])N1c2c(O)cccc2C(=O)N(C/C=C(\C)CC/C=C(\C)CCC=C(C)C)c2cc(O)cc(O)c21 [Compound 98],–,–,4.5,–,–,–,–,–

# Source: patent publication US20110028458A1, “INHIBITION OF CELL MIGRATION BY A FARNESYLATED DIBENZODIAZEPINONE” (THALLION PHARMACEUTICALS INC., priority 2008, published 2011)
